# Measured values: US20060178307A1, “Modulation of NMDA receptor currents via orexin receptor and/or CRF receptor” (priority 2005, published 2006)
# “Also recorded” adds a separate entry of the source. Where no end group is shown, it is not given here.
# Key:
# [1] = tested on: AMPAR/NMDAR ratio of EPSCs in VTA dopamine cells; assay: AMPAR/NMDAR ratio in VTA slices 24 hr after 5-day in vivo treatment; set-up: species or system rat; conditions: cocaine 15 mg/kg, 5-day treatment, n=4
# Description: The next study investigated whether orexin signaling in the VTA is required for the long-term plasticity associated with the development of behavioral sensitization. Long-term synaptic plasticity at excitatory synapses on VTA neurons was examined 24 hr after a 5-day treatment of cocaine (15 mg/kg) or saline (0.9%), a time course shown to induce long-lasting locomotor sensitization to cocaine (Thomas et al., 2001), with or without the OXR1 antagonist, SB 334867 (10 mg/kg, FIG. 5). To assay for synaptic plasticity, the relative contributions of AMPARs and NMDARs to EPSCs recorded in VTA dopamine cells were compared. Consistent with the potentiation observed following acute and 7-day cocaine treatments (Borgland et al., 2004), 5-day treatment with cocaine potentiated the AMPAR/NMDAR ratio compared to saline controls (FIG. 5A, saline: 0.4±0.07, n=4; cocaine: 0.8±0.1, n=4, p<0.05). This potentiation of synaptic plasticity was blocked by 5-day treatment with the OXR1 antagonist, SB 334867, administered 15 min prior to cocaine or saline (FIG. 5A, saline+SB334867: 0.4±0.02, n=5 vs. cocaine+SB334867: 0.5±0.08, n=11, p>0.05). Since OXR1 antagonists block cocaine-mediated potentiation of the AMPAR/NMDAR ratio, orexin A may either facilitate cocaine-mediated synaptic plasticity or enhance synaptic transmission itself. A 5-min orexin A application was performed to determine whether this caused changes in AMPAR/NMDAR ratio either 15 min or 3-4 hours after application (FIG. 5B).
# To calculate the AMPAR/NMDAR ratio, an average of 12 EPSCs at +40 mV was computed before and after application of the NMDAR blocker, AP5 (50 μM) for 5 min. NMDAR responses were calculated by subtracting the average response in the presence of AP5 (AMPAR only) from that seen in its absence; the peak of the AMPAR EPSC was divided by the peak of the NMDAR EPSC to yield an AMPAR/NMDAR ratio.
# Male Sprague-Dawley Rats (P21-P30; Charles River, N.C.) were singly housed with food and water available ad libitum. A 12 hr light/dark cycle was used, with the lights on at 7:00 A.M. All cocaine injections and behavioral testing were performed during the light cycle for consecutive days. The four treatment groups consisted of rats given 5 daily i.p. injections of SB 334867 (10 mg/kg) 15 min preceding i.p. injection of cocaine (15 mg/kg) or saline (0.9% NaCl), or i.p. injections of vehicle (10% DMSO and 25% β-hydroxy cyclodextrin in saline) 15 min preceding i.p. injection of cocaine or saline. […] Locomotor activity was measured in 17″×17″ chambers lined with three 16-beam I/R arrays. […] Distance traveled was measured using Open Field Activity Software (Med Associates, Inc) and analyzed for estimates of locomotion based on the movement of a given distance and resting delay (movement in a given period of time).
# locomotor activity [2] = assay: Locomotor sensitization to cocaine, i.p. OXR1 antagonist, open field; assay type: in vivo, Sprague-Dawley rats; conditions: n=13
# Description: To determine if orexin signaling plays a role in behavioral sensitization to cocaine, either the OXR1 antagonist SB 334867 (10 mg/kg, i.p.) or vehicle was injected 15 min prior to injecting cocaine (15 mg/kg, i.p) or saline (0.9%), and then the rats were placed in an open field chamber to measure locomotor activity for 1 hour each day for 5 days.
# Therefore, to determine if expression of cocaine sensitization requires release of orexin acting at the OXR1 receptor, the OXR1 antagonist SB 334867 (10 mg/kg) was injected with cocaine (15 mg/kg) on day 6 into either cocaine-sensitized or saline-treated rats.
# Male Sprague-Dawley Rats (P21-P30; Charles River, N.C.) were singly housed with food and water available ad libitum. A 12 hr light/dark cycle was used, with the lights on at 7:00 A.M. All cocaine injections and behavioral testing were performed during the light cycle for consecutive days. The four treatment groups consisted of rats given 5 daily i.p. injections of SB 334867 (10 mg/kg) 15 min preceding i.p. injection of cocaine (15 mg/kg) or saline (0.9% NaCl), or i.p. injections of vehicle (10% DMSO and 25% β-hydroxy cyclodextrin in saline) 15 min preceding i.p. injection of cocaine or saline. All animals were habituated to the photocell boxes (Med Associates, St. Albans, Vt.) for 2 hours prior to the start of the experiment. All animals were further habituated to the photocell boxes for 30 min prior to 60 min testing session. Locomotor activity was measured in 17″×17″ chambers lined with three 16-beam I/R arrays. A 50 ms scanning rate was used for measurement of beams broken. Distance traveled was measured using Open Field Activity Software (Med Associates, Inc) and analyzed for estimates of locomotion based on the movement of a given distance and resting delay (movement in a given period of time).
# locomotor activity [3] = assay: Locomotor sensitization to cocaine, intra-VTA OXR1 antagonist, 7-day paradigm; assay type: in vivo, Sprague-Dawley rats; conditions: control animals: intra-VTA vehicle + cocaine 15 mg/kg
# Description: Male Sprague-Dawley rats (250 grams) were implanted with bilateral cannulae directed at the VTA (AP, −5.2; ML, ±0.5, DV −8.0). Following recovery from surgery, animals were tested in a cocaine sensitization assay similar to that used for systemic administration of the OXR1 antagonist, but with two changes: a 7-day sensitization paradigm was used, and the OXR1 antagonist SB 334867 was microinjected directly into the VTA (6 μg/hemisphere in 300 nL solution composed of 10% DMSO in water). All other methods for habituation and data collection were identical to that described above. Rats were deeply anesthetized with pentobarbital, and perfused with a 10% formaldehyde solution. Brains were cryoprotected in 25% sucrose, 40 μm coronal sections were cut on a freezing microtome, and sections were mounted, dried and coverslipped. Injection sites were located under a light microscope and recorded on atlas figures adapted from Paxinos and Watson (1997).
# [4] = tested on: NMDAR-mediated EPSCs in VTA dopamine neurons; assay: Evoked NMDAR-mediated EPSCs, whole-cell voltage clamp at +40 mV, VTA neurons in midbrain slices; assay type: cell-based, rat; conditions: for effect on potentiation of NMDAR-mediated EPSCs by orexin A: inhibitor 100 μM in patch pipette; for effect on potentiation of NMDAR-mediated EPSCs by 100 nM orexin A: inhibitor 1 μM in patch pipette
# Description: Excitatory postsynaptic currents (EPSCs) were recorded from VTA neurons in rat midbrain slices. EPSCs were evoked while holding neurons in voltage clamp at +40 mV. Measurements were taken 20 ms after the stimulus artifact, a time point at which the glutamatergic EPSC is mediated purely by NMDARs.
# The patch pipette was loaded with the PLC inhibitor, U-73122 (1 μM, FIG. 2A, C, n=6) or the PKC inhibitor, chelerythrin (1 μM, FIG. 1A, B, n=6). […] Next, the protein kinase A inhibitor, PKI (20 μM, FIG. 2A, F, n=8) or Rp-cAMPs, a blocker of cAMP (100 μM, FIG. 2A, E, n=5) was added to the patch pipette.
# Activation of PKC is implicated in NMDAR-dependent long-term potentiation (Malinow et al., 1989) and it modulates NMDAR trafficking to the membrane (Lan et al., 2001; Scott et al., 2001; Fong et al., 2002). NMDARs can translocate from intracellular or extrasynaptic pools to synaptic sites (Lan et al., 2001; Tovar and Westbrook, 2002). […] In a separate group of slices, orexin A (100 nM, n=6) was applied for 5 min during the washout period.
# All of the electrophysiological recordings were performed in rats ranging from P21 to P30. Briefly, rats were anesthetized with halothane and sacrificed. Horizontal sections of the VTA ([…]) were prepared with a vibratome (Leica, Nussloch, Germany). Slices were placed in a holding chamber and allowed to recover for at least 1 hour before being placed in the recording chamber and superfused with bicarbonate-buffered solution (ACSF) saturated with 95% O2/5% CO2 and containing (in mM): 119 NaCl, 1.6 KCl, 1.0 NaH2PO4, 1.3 MgCl2, 2.5 CaCl2, 26.2 NaHCO3 and 11 glucose (at 32-34° C.). Picrotoxin (100 μM) was added to block GABAA receptor-mediated inhibitory postsynaptic currents. Cells were visualized using infrared differential interference contrast video microscopy. Whole-cell voltage clamp recordings were made using an Axopatch 1D amplifier (Axon Instruments, Union City, Calif.). Electrodes (2.8-4.0 MΩ) contained (in mM): 120 Cesium Methansulfonate, 20 HEPES, 0.4 EGTA, 2.8 NaCl, 5 TEA-Cl, 2.5 MgATP, and 0.25 NaGTP, pH 7.2-7.3 (270-285 mOsm). Series resistance (10-40 MΩ) and input resistance were monitored on-line with a 4-mV depolarizing step (50 ms) given just after every afferent stimulus. Dopaminergic VTA neurons were identified by the presence of a large Ih current (Lacey et al., 1990; Johnson and North, 1992) and, in some cases, tyrosine hydroxylase labeling. A bipolar stimulating electrode was placed 100-300 μm rostral to the recording electrode and was used to stimulate excitatory afferents at 0.1 Hz. Neurons were voltage-clamped at −70 mV and +40 mV to record AMPAR- and NMDAR-mediated EPSCs.
# [5] = tested on: NMDAR-mediated currents in VTA dopamine cells; assay: CRF-related peptides on NMDAR-mediated currents at excitatory synapses onto VTA dopamine cells; assay type: cell-based; conditions: mammalian brain
# AMPAR mEPSCs = assay: AMPAR-mediated miniature EPSCs (mEPSCs) in VTA neurons; assay type: cell-based, rat; conditions: APV 50 μM 3 min prior and during orexin application
# Description: Next, to investigate whether AMPAR function and/or number was modified with orexin A treatment, AMPAR-mediated miniature EPSCs (mEPSCs) were examined (a standard method for determining the locus of synaptic change). Compared to untreated neurons, orexin A (100 nM) caused a significant increase in both amplitude (FIG. 6C,D,F) and frequency (FIG. 6C,E,G) 3-4 hours after application (24±1.6 pA; 2.4±0.5 Hz; n=7 vs control: 13±1.3 pA; 0.93±0.16 Hz; n=7; FIG. 6A), but not at 15 min (15±1.7 pA; 0.9±0.1 Hz; n=[…], FIG. 6B).
# AMPAR mEPSCs were recorded in cells voltage-clamped at −70 mV in lidocaine (500 μM), APV (50 μM) and sucrose (100 mM). NMDAR mEPSCs were recorded at −40 mV in Mg2+-free external solution with lidocaine (500 μM), glycine (20 μM), and CNQX (10 μM). mEPSCs were collected using Clampex (Axon Instruments) and analyzed using Mini Analysis Program (Synaptosoft). Detection criteria were set at >10 pA, <1 ms rise-time, and <3 ms decay-time for AMPAR mEPSCs and >10 pA, <1 ms rise-time, and <10 ms decay-time for NMDAR mEPSCs. mEPSC traces were recorded while sampling every 10 μs, the images were filtered at 5 kHz. Averaged mEPSCs were constructed using Mini Analysis Program (Synaptosoft).
compound,measurement,setting,value
COC(=O)[C@H]1[C@@H](OC(=O)c2ccccc2)C[C@@H]2CC[C@H]1N2C [cocaine],AMPAR/NMDAR ratio,[1],0.8±0.1
same,distance traveled on day 5,"locomotor activity [2]; cocaine-only-treated rats, 15 mg/kg i.p.",20347±5643 cm
same,locomotor activity on day 1,locomotor activity [2]; cocaine-treated rats given vehicle,5692±1579 cm
same,mean locomotor distance on day 7,locomotor activity [3],34162±4477 cm
CC(C(O)c1ccc(O)cc1)N1CCC(Cc2ccccc2)CC1 (centres unmarked) [ifenprodil],remaining current after application,[4]; bath-applied 3 μM,71±6%
same,effect on orexin A-mediated potentiation of NMDAR EPSCs,[4]; ifenprodil 3 μM bath-applied,no significant effect; also recorded: not affected
[Zn+2] [Zn^2+],inhibition of NMDAR EPSCs,"[4]; 100 nM, n=6",13±8%
same,inhibition of NMDAR EPSCs,"[4]; 300 nM, n=5",29±9%
same,effect on orexin A-mediated potentiation of NMDARs,[4]; Zn2+ 300 nM,significantly reduced; also recorded: mostly blocked
Nc1ncnc2c1ncn2[C@@H]1O[C@@H]2CO[P@@](O)(=S)O[C@H]2[C@H]1O [Rp-cAMPs],effect on potentiation of NMDAR-mediated EPSCs by orexin A,[4]; n=5,robust potentiation
same,effect on potentiation of NMDAR-mediated EPSCs by orexin A,"[4]; n=5, listed as Rp-cAMPS",did not block
COc1ccc2c(c[n+](C)c3c4cc5c(cc4ccc23)OCO5)c1OC [chelerythrin],effect on potentiation of NMDAR-mediated EPSCs by 100 nM orexin A,[4]; n=6,completely blocked
C[C@H](NC(c1cccc2[nH]c(=O)c(=O)[nH]c12)P(=O)(O)O)c1ccc(Br)cc1 (some centres unmarked) [NVP-AAM077],remaining current,"[4]; NVP-AAM077 0.4 μM applied during peak increase induced by 100 nM orexin A, n=6",87±11%
same,effect on expression of orexin A-mediated potentiation of NMDAR EPSCs,[4]; NVP-AAM077 0.4 μM applied during peak of potentiation,blocked; also recorded: reversed
same,effect on ability of 100 nM orexin A to potentiate NMDAR EPSCs,[4]; NVP-AAM077 0.4 μM pre-applied,significantly reduced
same,inhibition of NMDAR EPSCs,"[4]; bath application 0.4 μM, n=6",54±7%
"Urocortin: may be the endogenous CRF-R2 ligand and also binds CRF-BP (DNPSLSIDLTFHLLRTLLELARTQSQRERAEQNRIIFDSV; ends and bridges not checked; UniProt P55089 83-122, looked up)",potentiation of NMDAR currents,[5],mimics CRF
COc1ccc2c(c1)CC[C@@H]1[C@@H]2CC[C@]2(C)[C@@H](NCCCCCCN3C(=O)C=CC3=O)CC[C@@H]12 [U-73122],effect on potentiation of NMDAR-mediated EPSCs by 100 nM orexin A,[4]; n=6,completely blocked
same,effect on potentiation of NMDAR-mediated EPSCs by 100 nM orexin A,"[4]; n=6, listed as U73122",blocked
"O=C(O)C1NCCN(C(=O)c2ccc3c(ccc4ccccc43)c2)C1C(=O)O (centres unmarked) [PPDA, 1-(phenantrene-2carbonyl) piperazine-2,3-dicarboxylic acid]",additional inhibition of NMDAR EPSCs,[4]; 1 μM on top of NVP-AAM077 and ifenprodil,10%
same,effect on orexin A (100 nM)-mediated NMDAR potentiation,[4]; PPDA 1 μM after co-application of NVP-AAM077 and ifenprodil,blocked
same,remaining current,"[4]; PPDA 1 μM with NVP-AAM077 and ifenprodil, n=6",14±2.2%
"N[C@H](CCCP(=O)(O)O)C(=O)O [APV, D (−)-2-Amino-5-phosphonopentanoic acid]",effect on orexin A-induced increase in AMPAR mEPSC amplitude at 3-4 hours,AMPAR mEPSCs,significantly reduced; also recorded: blocked
